# Reference: patent US9233237B2, “Apparatus and method for periodic fluid-delivery/fluid-removal cycles in the cranial subarachnoid space to treat cerebral cortical disorders” (NEW YORK UNIVERSITY, priority 2010, dated 2016)
# System: monkey
# Experiment: EEG effects of drugs delivered through the implanted subdural/subarachnoid sheet body in a monkey
# Assay type: in vivo
# Conditions: acetylcholine-induced EEG seizure, delivery through the sheet body over right frontal cortex (FIG. 8)
# Procedure: In this experiment, drugs with known pharmacological actions were delivered through the sheet body 102 to test whether the inlet and outlet ports 112, 114 were clogged or obstructed, with the effects of the administered drugs monitored via EEG electrode contacts 113 integrated into the sheet body 102. The experiment was performed in a monkey approximately three months after the implantation of the sheet body 102 over the animal's right frontal cortex and the implantation of the control unit 130. During this post-surgical period, the delivery fluid was saline. On the day of this experiment, the mini-pump was temporarily modified to deliver a seizure-inducing agent (acetylcholine) through the sheet body 102, followed by a delivery of an antiepileptic drug (muscimol) through the same route. Traces 1 to 3 of FIG. 6 represent EEG recordings obtained with the EEG electrodes integrated into the subarachnoid sheet (ipsilateral recording channels 1, 2 and 3). The fourth trace of FIG. 6 was obtained from a subdural/subarachnoid electrode placed, during device implantation, in the left-side frontal cortex (contralateral recording channel).
structure (smiles),measurement,value
NCc1cc(=O)[nH]o1 [muscimol],time to stop of EEG seizure after delivery,≤ 2 min
